Experimental findings from ChEMBL document CHEMBL3046460, “Preparation of Dinotefuran Related Compounds and Agonistic Action on SAD2 Hybrid Nicotinic Acetylcholine Receptors Expressed in Xenopus laevis Oocytes” (J Pestic Sci, 2002) are described below.

Molecules are shown by their SMILES. pEC50: −log10 of the molar value.

This experiment is described as follows: Agonist activity at Drosophila melanogaster SAD/chicken beta2 nAChR expressed in Xenopus laevis oocytes assessed as inward current by two-electrode voltageclamp technique. Type of experiment: cell-based. For orientation: Two-electrode voltage clamp is typically applied to oocytes expressing channels or transporters.

As usually defined, the pEC50 is the negative decadic logarithm of the EC50, by convention in mol/L. Turning to `O=[N+]([O-])/N=C1\NCCN1CC1CCOC1` (centres undefined), the pEC50 was 3.83.
The figure for `CC(=O)OCC[N+](C)(C)C` [ACETYLCHOLINE] is 4.70; for `CN/C(=N/CC1CCOC1)N[N+](=O)[O-]` (centres undefined) [DINOTEFURAN] it is 3.65; for `O=[N+]([O-])/N=C1\NCCN1Cc1ccc(Cl)nc1` [IMIDACLOPRID] it is 5.55.
